We go through 59 molecules from PubChem BioAssay AID977628 (Broad Institute, 2014).

Assay in all cases: E. coli growth inhibition, wild-type GFP versus h24 humanized RFP strain, dose response, h24 mutant RFP vs wild-type GFP, cherry-pick (AID 977628)
The subject of assay [1] is E. coli h24 humanized mutant RFP strain growth, fluorescence, 24 h.
The test system of assay [2] is E. coli mixed WT/h24 culture total growth, OD600, 24 h.
The test system of assay [3] is E. coli WT GFP strain growth, fluorescence, 24 h.

Results filed as inconclusive are left out. Active and inactive are the calls of the source.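 Rule for the calls: active = compound lowering the normal-ribosome reporter at least twice as much as the humanized-ribosome reporter, growth loss under a set limit; inconclusive = no clear call, values can overlap the other calls; inactive = the rest.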

Broadly, the AC50 is the midpoint of the concentration-response curve, whichever way the signal moves. Take `CCN(C(=O)CSc1cc(C)c2ccc(OC)cc2n1)C1CCS(=O)(=O)C1` (centres undefined): the AC50 in assay [1] and in assay [2] was greater than 100 µM each time.
In the case of `COc1ccccc1-c1nnc(C2CCN(S(=O)(=O)c3cccc([N+](=O)[O-])c3)CC2)o1`, the values for the AC50 in assay [3], in assay [1] and in assay [2] were > 100 µM (inactive), greater than 100 µM and greater than 100 µM, respectively.
Consider `NS(=O)(=O)c1cccc(NC(=O)c2cccc(-c3ccc(O)cc3)c2)c1`, for which the AC50 is > 100 µM (inactive) in assay [3], greater than 100 µM in assay [1] and 50.8 µM in assay [2].
In the case of `COCc1ccc(C(=O)N2CCCC(C(=O)c3ccc(Cl)cc3C)C2)o1` (centres undefined), the AC50 in assay [1] and in assay [2] was greater than 100 µM throughout.
For the molecule `COc1ccccc1CNC(=O)CN1C(=O)NC(c2ccccc2)(c2ccccc2)C1=O`, the AC50 in assay [3] is > 100 µM (inactive); in assay [1] it was greater than 100 µM; in assay [2] it was greater than 100 µM.
For the molecule `CCc1cc2cc(OC)ccc2nc1SCC(=O)Nc1cc(OC)c(OC)cc1C(=O)O`, the AC50 in assay [1] and in assay [2] was greater than 100 µM each time.
For the molecule `CCCCNC(=O)C[C@@H]1C[C@@]2(C(=O)OC)CCCCC=C2N(Cc2ccccc2)C1=O`, the AC50 in assay [3] was > 100 µM (inactive); in assay [1], greater than 100 µM; in assay [2], greater than 100 µM.
For the molecule `COc1ccccc1C(=O)Nc1cccc2cccnc12`, the AC50 in assay [3] is > 100 µM (inactive); in assay [1], 10.2 µM; in assay [2], greater than 100 µM.
For `CNC(=O)c1ccsc1NC(=O)c1ccc2c(c1)CCCC2` the same measures were > 100 µM (inactive), 6.81 µM and greater than 100 µM.
For `C=CCNc1ccc2c(c1)OC[C@H](CC(C)C)NS2(=O)=O` the same measures were > 100 µM (inactive), greater than 100 µM and greater than 100 µM.
On to `COC(C(=O)Nc1ccnn1C1CCN(Cc2ccc(Cl)s2)CC1)c1ccccc1` (centres undefined), for which the AC50 in assay [1] and in assay [2] was greater than 100 µM in each case.
As for `C[C@]12C(=O)N(c3ccc(F)cc3)C(=O)N1[C@@H]1c3ccccc3OC[C@@H]1[C@H]2c1ccccc1`, the AC50 in assay [1] was 5.36 µM; in assay [2], greater than 100 µM.
As for `COc1ccc2cc(CO)c3cc(OC)c(OC)cc3c2c1`, the AC50 is > 100 µM (inactive) in assay [3], greater than 100 µM in assay [1] and greater than 100 µM in assay [2].
For the molecule `COc1cc2cc(C(=O)Nc3ccc4c(c3)OCCO4)[nH]c2cc1OC`, the AC50 in assay [1] and in assay [2] was greater than 100 µM in each case.
As for `CCCN(Cc1ccco1)S(=O)(=O)c1ccc(OC)c(OC)c1`, the AC50 in assay [1] and in assay [2] was greater than 100 µM in each case.
In the case of `CCOc1ccc(NC(=O)CN(C)CC(=O)Nc2ccc(Br)cc2F)cc1OCC`, the values for the AC50 in assay [3], in assay [1] and in assay [2] were > 100 µM (inactive), greater than 100 µM and greater than 100 µM, respectively.
For the molecule `COc1ccc(NC(=O)c2sccc2-n2cccc2)cc1`, the results for the AC50 in assay [3] and in assay [1] were > 100 µM (inactive) and greater than 100 µM, respectively.
For `CCCCCc1nnc(NC(=O)C2COc3ccccc3O2)s1` (centres undefined), the AC50 in assay [1] and in assay [2] was greater than 100 µM each time.
As for `O=C1C(c2ccccc2)c2ccccc2N1Cc1ccccc1` (centres undefined), the values for the AC50 in assay [3] and in assay [1] were > 100 µM (inactive) and greater than 100 µM, respectively.
With `CCc1cccc(NC(=O)CCC(=O)N2CCSc3ccccc32)c1`, the AC50 was > 100 µM (inactive) in assay [3], greater than 100 µM in assay [1] and 41.7 µM in assay [2].
For the molecule `COc1ccccc1OCC(=O)Nc1ccc(S(=O)(=O)N2CCCCCC2)cc1`, the values for the AC50 in assay [3] and in assay [1] were > 100 µM (inactive) and greater than 100 µM, respectively.
Taken in the same sequence, the figures for `Cc1ccc(CNS(=O)(=O)c2ccc3c(c2)NC(=O)CS3)cc1` were > 100 µM (inactive) and 8.08 µM.
With `CSc1nnnn1-c1ccc(Cl)cc1`, the AC50 in assay [1] and in assay [2] was greater than 100 µM in each case.
Regarding `COC(=O)c1ccsc1NC(=O)c1cccc(OC)c1`, the concentration at half-maximal activity (AC50) in assay [1] and in assay [2] was greater than 100 µM each time.
`Cc1cccc(S(=O)(=O)Nc2ccc(-c3cn4ccccc4n3)cc2)c1`: the AC50 in assay [3] is > 100 µM (inactive); in assay [1], greater than 100 µM; in assay [2], 29.7 µM.
`Cc1ccccc1-n1ncc2c(SCC(=O)N3c4ccccc4CC3C)ncnc21` (centres undefined): the AC50 is > 100 µM (inactive) in assay [3] and greater than 100 µM in assay [1].
Consider `COc1cc(NC(=O)COC(=O)CC(C)(C)C)c(C)cc1[N+](=O)[O-]`, for which the figures for the AC50 in assay [3], in assay [1] and in assay [2] were > 100 µM (inactive), greater than 100 µM and greater than 100 µM, respectively.
Take `Nc1[nH]c(C(=O)c2ccccc2)c(-c2ccc3c(c2)OCO3)c1C(=O)NCCc1c[nH]c2ccccc12`: the AC50 is > 100 µM (inactive) in assay [3], greater than 100 µM in assay [1] and greater than 100 µM in assay [2].
Turning to `O=C(NCCc1ccccc1)c1ccc2c(c1)S(=O)(=O)c1ccccc1C2=O`, the AC50 was > 100 µM (inactive) in assay [3] and greater than 100 µM in assay [1].
As for `Cc1nc(C)c(-c2ccn(S(=O)(=O)c3ccc(Cl)cc3)n2)o1`, the AC50 in assay [3] was > 100 µM (inactive); in assay [1], greater than 100 µM; in assay [2], 45.5 µM.
In the case of `CC(=O)Nc1ccc2nc3ccccc3nc2c1`, the figures for the AC50 in assay [3] and in assay [1] were > 100 µM (inactive) and greater than 100 µM, respectively.
Taken in the same sequence, the figures for `Clc1ccc2nc(CN3CCCc4ccccc43)cn2c1` were > 100 µM (inactive) and greater than 100 µM.
For `Cc1cc(C)n2nc(C(=O)Nc3cccc(S(=O)(=O)N(C)c4ccccc4)c3)nc2n1`, the AC50 was > 100 µM (inactive) in assay [3], greater than 100 µM in assay [1] and greater than 100 µM in assay [2].
On to `CCn1cc(Br)c(C(=O)Nc2ccc(C(=O)OC(C)C)cc2)n1`, for which the AC50 in assay [3] was > 100 µM (inactive); in assay [1] it was 2.96 µM; in assay [2] it was 19.9 µM.
`N#Cc1ccsc1NC(=O)CSc1nnnn1-c1ccc(O)cc1`: the values for the AC50 in assay [3] and in assay [1] were > 100 µM (inactive) and greater than 100 µM, respectively.
In the case of `CCc1ccn2cc(-c3ccc4c(c3)OCO4)nc2c1`, the AC50 in assay [3] was > 100 µM (inactive); in assay [1], greater than 100 µM; in assay [2], greater than 100 µM.
Turning to `Cc1ccc(C(=O)Nc2cccc3[nH]c(C(F)(F)F)nc23)cc1`, the figures for the AC50 in assay [3], in assay [1] and in assay [2] were > 100 µM (inactive), greater than 100 µM and greater than 100 µM, respectively.
For `COc1ccc2oc(C(=O)NCc3ccco3)c(C)c2c1`, the AC50 in assay [3] is > 100 µM (inactive); in assay [1], greater than 100 µM.
Regarding `O=C(COC(=O)C1CC2C=CC1C2)Nc1ccc([N+](=O)[O-])cc1` (centres undefined), the AC50 in assay [1] and in assay [2] was greater than 100 µM in each case.
In the case of `COc1ccc(NC(=O)c2cccnc2SC)cc1S(=O)(=O)N1CCCCC1`, the AC50 in assay [3] was > 100 µM (inactive); in assay [1] it was greater than 100 µM; in assay [2] it was greater than 100 µM.
Take `c1ccc(-c2nc(-c3cccnc3)cs2)cc1`: the AC50 was > 100 µM (inactive) in assay [3], greater than 100 µM in assay [1] and greater than 100 µM in assay [2].
As for `O=C(NCCC1=CCCCC1)c1ccc(Cl)c(S(=O)(=O)Nc2ccccc2)c1`, the values for the AC50 in assay [3] and in assay [1] were > 100 µM (inactive) and greater than 100 µM, respectively.
On to `Cc1cc(C)cc(NC(=O)c2cccc(NC(=O)c3ccco3)c2)c1`, for which the AC50 in assay [3] is > 100 µM (inactive); in assay [1] it was greater than 100 µM.
Regarding `CCc1cc(C(=O)c2ccc(OC)cc2)c(NC(=O)CCC(=O)O)s1`, the AC50 in assay [3] is > 100 µM (inactive); in assay [1] it was 49 µM; in assay [2] it was 50.9 µM.
On to `COc1ccc(NC(=O)c2nc[nH]c2C(=O)N(C)Cc2ccccc2)cc1`, for which the AC50 in assay [3] was > 100 µM (inactive); in assay [1], greater than 100 µM.
On to `O=C1c2cccc(OCC(=O)N3CCCc4ccccc43)c2CCN1Cc1cccnc1`, for which the AC50 in assay [3] is > 100 µM (inactive); in assay [1] it was 9.06 µM; in assay [2], 45.8 µM.
Taken in the same sequence, the figures for `Nc1ccccc1Sc1ccc(C(F)(F)F)cc1[N+](=O)[O-]` were > 100 µM (inactive), greater than 100 µM and 52.3 µM.
Taken in the same sequence, the figures for `Cc1oc(-c2ccc(-c3ccccc3)cc2)nc1CN(C)C1CCOC1` (centres undefined) were > 100 µM (inactive), greater than 100 µM and 49.9 µM.
Taken in the same sequence, the figures for `O=C(O)c1cc(S(=O)(=O)N2CCN(C(c3ccccc3)c3ccccc3)CC2)ccc1Cl` were > 100 µM (inactive), greater than 100 µM and greater than 100 µM.
Regarding `O=S1(=O)c2ccc(Br)cc2OCCC2CCCCN21` (centres undefined), the AC50 in assay [3] is > 100 µM (inactive); in assay [1] it was greater than 100 µM; in assay [2], greater than 100 µM.
Take `CC(C)CNC(=O)c1cccc(NC(=O)C(C)Oc2ccccc2)c1` (centres undefined): the AC50 in assay [1] and in assay [2] was greater than 100 µM throughout.
Consider `CCN(CC)CCN(C(=O)C1CCCCC1)c1nc2cc3c(cc2s1)OCO3`, for which the AC50 in assay [3] is > 100 µM (inactive); in assay [1], greater than 100 µM.
For `Cc1ccc(NC(=O)c2ccc(NCCCN3CCC(C)CC3)c([N+](=O)[O-])c2)cc1F` the same measures were > 100 µM (inactive) and 11.1 µM.
For `CCOC(=O)[C@]12Cc3ccccc3[C@H]1N(C)C(=O)c1cc(OC)ccc12` the same measures were > 100 µM (inactive) and greater than 100 µM.
Regarding `Cc1cc(C(=O)c2ccc3ccccc3c2)c(C)o1`, the AC50 in assay [3] is > 100 µM (inactive); in assay [1] it was greater than 100 µM.
As to `O=C(Nc1cccc2ccccc12)c1ccc([N+](=O)[O-])o1`, the AC50 was > 100 µM (inactive) in assay [3] and greater than 100 µM in assay [1].
For `CN(c1ccccc1)S(=O)(=O)c1cccc(NC(=O)CCN2C(=O)C3CCCCC3C2=O)c1` (centres undefined), the AC50 in assay [3] was > 100 µM (inactive); in assay [1], 9.42 µM.
Take `Cc1ccccc1-c1nc(CS(=O)(=O)CC(=O)N2CCCCC2)c(C)o1`: the half-maximal activity concentration (AC50) in assay [1] and in assay [2] was greater than 100 µM throughout.
On to `Cc1nn(C)cc1NC(=O)C[C@@H]1CC[C@@H]2[C@@H](COc3ccc(NC(=O)C4CCC4)cc3C(=O)N2C)O1`, for which the AC50 in assay [3] is > 100 µM (inactive); in assay [1], 3.9 µM.
